Reference: patent US9382229B2, “Compounds and methods of use thereof for treating neurodegenerative disorders” (THE JOHNS HOPKINS UNIVERSITY, priority 2011, dated 2016)

Tests used:
[1] = tested on: retinal ganglion cells (RGCs); test: Time course of RGC cell survival with murine purified RGCs, up to 6 days in vitro; assay type: cell-based, mouse; conditions: for RGC survival: 6 days in vitro (DIV6), percent survival compared to zero time per FIG. 2 legend, Mean±S.E.M.
Method: FIG. 2 is a comparison of the relative efficacy of sunitinib, VX680 and neurotrophic factors in promoting RGC survival in vitro. […] Purified mouse RGCs were cultured in the presence of sunitinib (0.5 or 1 μM), VX680 (1 or 2 μM), and a combination of BDNF, CNTF, and GDNF, for up to 6 days. RGC survival (percent survival compared to zero time) was determined at the indicated day in vitro (DIV) (0, 1, 2, 3, and 6 DIV). Error bars: Mean±S.E.M.;
FIG. 3 is representative images showing the RGCs from the study described in FIG. 2;
For comparison, data from vehicle and BDNF/CNTF/GDNF also are shown.

[2] = tested on: retinal ganglion cells (RGCs); test: RGC cell survival assay with murine purified RGCs, 3 days in culture (Calcein AM/Hoechst/Ethidium homodimer staining, Cellomics imager); assay type: cell-based, mouse; conditions: for RGC survival: purified mouse RGCs cultured 3 days with 25-5000 nM compound
Method: RGCs were purified from 2-5 day-old C57BL/6 mice, and cultured for 3 days in a media containing Neurobasal and B27, with or without 25-5000 nM of sunitinib (sun) or VX680. RGC survival was determined by combined staining with Calcein A M, Hoescht, and Ethidium homodimer. Images were acquired and analyzed with a Cellomics imager. Error bars: Mean±S.E.M.;
(§1) Purified mouse RGCs were cultured in the presence of sunitinib (0.5 μM), 25-5000 nM of VX680, JHU611 or JHU612, for 3 days. RGC survival was determined by combined staining with Calcein A M, Hoescht, and Ethidium homodimer. Images were acquired and analyzed with a Cellomics imager. Error bars: Mean±S.E.M.;
as §1, with “JHU609” for “JHU611”, “JHU610,” for “JHU612,”
as §1, with “JHU607” for “JHU611”, “JHU608,” for “JHU612,”, “days. The percentages of” for “days.”
RGCs were cultured with the indicated drug at the indicated concentration, cultured, and survival was monitored using a calcein AM assay with a Cellomics VTI imager (Thermo Scientific, 100 Technology Drive, Pittsburgh, Pa.) and image analysis software.

[3] = tested on: primary murine retinal ganglion cells (RGCs); test: RGC-based high content screen of small molecule libraries (CellTiter-Glo ATP, PI/Hoechst staining); assay type: cell-based, mouse; conditions: purified primary murine RGCs, CellTiter-Glo or PI/Hoechst
Method: Survival of purified mouse RGCs with increasing concentrations of VX680 (tozasertib) was determined by measuring cellular ATP levels with CellTiter-Glo (CTG), or by combined staining with Propidium iodide (PI) and Hoescht (Hoe) (PI/Hoe) (FIG. 8A). The efficacy in promoting primary mouse RGC survival by VX680 and NCGC00188382-01 was quantified and compared to sunitinib (FIGS. 8B and 8C).

hippocampal neurons = test: Hippocampal neuron survival against 3-nitropropionic acid (3-NP) induced cell death, MTT assay; assay type: cell-based; conditions: cell death induced by 3-NP, VX680 at 0.5, 1, 5 and 10 μM
Method: Cell death of hippocampal neurons was induced by the mitochondrial toxin 3-nitropropionic acid (3-NP). VX680 was added to the media at concentrations of 0.5 μM, 1 μM, 5 μM and 10 μM. Cell survival was determined using a MTT assay. The effect of VX680 on cell survival was analyzed with the student t-test. Error bars: Mean±S.D.; and […]

Structure (SMILES): CCN(CC)CCNC(=O)c1c(C)[nH]c(/C=C2\C(=O)Nc3ccc(F)cc32)c1C [Sunitinib, sunitinib]
- RGC survival ([1]; 0.5 μM): 23.73 ± 1.17
- RGC survival ([1]; 1 μM): 26.37 ± 1.61

Structure (SMILES): Cc1cc(Nc2nc(Sc3ccc(NC(=O)C4CC4)cc3)nc(N3CCOCC3)n2)n[nH]1 [JHU609, N-(4-(4-(5-methyl-1H-pyrazol-3-ylamino)-6-morpholino-1,3,5-triazin-2-ylthio)phenyl)cyclopropanecarboxamide]
- RGC survival [2]: promote RGC survival

Structure (SMILES): Cc1cc(Nc2nc(Sc3ccc(NC(=O)C4CC4)cc3)nc(N3CCCNCC3)n2)n[nH]1 [JHU612, N-(4-(4-(1,4-diazepan-1-yl)-6-(5-methyl-1H-pyrazol-3-ylamino)-1,3,5-triazin-2-ylthio)phenyl)cyclopropanecarboxamide]
- RGC survival [2]: promote RGC survival

Structure (SMILES): Cc1cc(Nc2nc(Sc3ccc(NC(=O)C4CC4)cc3)nc(N3CCC(O)CC3)n2)n[nH]1 [JHU611, N-(4-(4-(4-hydroxypiperidin-1-yl)-6-(5-methyl-1H-pyrazol-3-ylamino)-1,3,5-triazin-2-ylthio)phenyl)cyclopropanecarboxamide]
- RGC survival [2]: promote RGC survival

Structure (SMILES): CC(NCc1ccc2c(c1)nc(NC(=O)c1ccc(-c3cn[nH]c3)s1)n2CC(C)(C)O)C(C)(C)C (stereo not drawn) [NCGC00188382-01]
- RGC survival / neuroprotection in high content screen [3]: neuroprotective compounds

Structure (SMILES): Cc1cc(Nc2nc(Cl)nc(Sc3ccc(NC(=O)C4CC4)cc3)n2)n[nH]1 [JHU607, N-(4-(4-chloro-6-(5-methyl-1H-pyrazol-3-ylamino)-1,3,5-triazin-2-ylthio)phenyl)cyclopropanecarboxamide]
- RGC survival [2]: promote RGC survival

Structure (SMILES): Cc1cc(Nc2nc(Sc3ccc(NC(=O)C4CC4)cc3)nc(N3CCC(N4CCCC4)CC3)n2)n[nH]1 [JHU610, N-(4-(4-(5-methyl-1H-pyrazol-3-ylamino)-6-(4-(pyrrolidin-1-yl)piperidin-1-yl)-1,3,5-triazin-2-ylthio)phenyl)cyclopropanecarboxamide]
- RGC survival [2]: promote RGC survival

Structure (SMILES): Cc1cc(Nc2cc(N3CCN(C)CC3)nc(Sc3ccc(NC(=O)C4CC4)cc3)n2)[nH]n1 [VX-680, Tozasertib]
- RGC survival / neuroprotection in high content screen [3]: could promote the survival of cultured RGCs
- RGC survival / neuroprotection in high content screen ([3]; listed as VX680): neuroprotective compounds
- survival of hippocampal neurons (hippocampal neurons): promotes the survival of hippocampal neurons against mitochondrial injury and oxidative stress
- RGC survival ([1]; 1 μM): 49.66 ± 2.27
- RGC survival ([1]; 2 μM): 60.32 ± 2.47
- neuroprotective activity compared with sunitinib and BDNF/CNTF/GDNF combination ([1]; FIG. 2, time course 0-6 DIV): exceeds that of sunitinib and a combination of brain derived neurotrophic factor (BDNF) ciliary neurotrophic factor (CNTF), and glial-derived neurotrophic factor (GDNF)
- therapeutic window compared with sunitinib ([2]; FIG. 1, murine purified RGCs): wider therapeutic window
- cell survival promoting activity compared with sunitinib ([2]; FIG. 1, murine purified RGCs, calcein AM assay, sunitinib as positive control): more potent cell survival promoting activity than sunitinib
- RGC survival [2]: promotes retinal ganglion cell (RGC) survival in vitro

Structure (SMILES): Cc1cc(Nc2nc(Sc3ccc(NC(=O)C4CC4)cc3)nc(N3CCNCC3)n2)n[nH]1 [JHU608, N-(4-(4-(5-methyl-1H-pyrazol-3-ylamino)-6-(piperazin-1-yl)-1,3,5-triazin-2-ylthio)phenyl)cyclopropanecarboxamide]
- RGC survival [2]: promote RGC survival
